Test results from patent US20250019708A1, “METHODS FOR THE TREATMENT OF HRD CANCER AND BRCA-ASSOCIATED CANCER” (INSTITUT CURIE, priority 2021, published 2025).

Experiments:
[1] = tested on: PARPi-resistant OVCAR8 xenografts; test: PARPi-resistant xenograft tumor growth and survival; format: in vivo, athymic nude mice; conditions: versus vehicle; FIG. 6A
Description: FIG. 6: NMNAT1 inhibition kills PARPi-resistant HRD tumors in vivo. A. Growth (relative tumor volume, RTV) of parental and PARPi-resistant OVCAR8 xenografts in vivo upon PARPi (rucaparib) or vehicle treatment. B, Growth (relative tumor volume, RTV) of PARPi-resistant OVCAR8 xenografts in vivo. C, Relative tumour volumes (RTV) for individual mice treated in B after five weeks of treatment. D, Overall survival for mice bearing PARPi-resistant OVCAR8 xenografts treated with vehicle or doxycycline. For data shown in FIG. 6, the PARPi-resistant OVCAR8 cells were xenotransplanted subcutaneously in athymic nude mice. Doxycycline was supplemented in the food (625 p.p.m.).
To translate these findings into a translational setting, the inventors derived a PARPi-resistant clone from the PARPi-naive BRCA1-deficient OVCAR8 lines, expressed either doxycycline-inducible NMNAT1 or scrambled (Scr) shRNA in these cells, and xenograft them in athymic nude mice.
As expected the OVCAR8 PARPi-resistant cells were resistant to the PARPi rucaparib in vivo (FIG. 6A).

NMNAT1−/− RPE-1 cells = test: Survival assay with PARP inhibitor; format: cell-based; conditions: versus WT RPE-1; FIG. 1g
Description: FIG. 1: a, Quantification (left) and representative images (right) of clonogenic formation of wild type (WT) and BRCA2^−/− (clones C1 and C2) RPE-1 cells with and without BRCA2 cDNA complementation, after transfection with the indicated NMNAT1 siRNAs. b, Clonogenic formation (left) and WB-analysis (right) of BRCA2 mAID HeLa cells in the presence or absence of auxin (IAA) after transduction with viral particles carrying NMNAT1 shRNA or control. c, Clonogenic formation of WT and BRCA1^−/− RPE-1 cells after transfection with siNMNAT1 #2. d, Clonogenic formation of WT and NMNAT1^−/− RPE-1 cells after transfection with the indicated BRCA1/2 siRNAs. e, Quantification (left) and representative images (right) of clonogenic formation of the indicated HR-proficient and HR-deficient cells upon siNMNAT1. f, DNA damage quantification by alkaline COMET assay of P53−/− RPE-1 cells in the presence or absence of NMNAT1. g, Survival assay of WT and NMNAT1^−/− RPE-1 cells exposed to the indicated doses of the PARP inhibitor rucaparib (PARPi).
Accumulation of DNA lesions can result in increased sensitivity to genotoxic drugs. Given that NMNAT1 functions upstream of PARP1 by providing NAD^+, the reduced PARP1 activity upon NMNAT1 loss might account for the observed synthetic lethality between NMNAT1 and BRCA.

In the case of `CNCc1ccc(-c2[nH]c3cc(F)cc4c3c2CCNC4=O)cc1` [rucaparib], the “response of tumor to PARPi in vivo” value [1] is reported as “resistant” and the “sensitivity to PARP inhibitor (survival)” value (NMNAT1−/− RPE-1 cells) is reported as “sensitized”.
